Where “and” joins values, the source holds several entries; their conditions need not be identical. Identical values can stand only once. Like-named read-outs stand apart in the source and are kept apart here. Marks after values point to notes of the source that are not given here.
What was measured:
[1] = test system: mouse embryo zone of polarizing activity (ZPA); conditions: Bell, et al. (1999); cited from earlier work
[2] = test system: Shh-dependent pancreatic cancer cell line L3.6pl; format: cell-based; conditions: for Cell Growth (normalized): normalized to cell growth in carrier
C57BL/6CrIBR mice = test: Cadmium-induced forelimb ectrodactyly in fetuses of treated pregnant mice; format: in vivo, mouse
Description: Cadmium-induced Forelimb Ectrodactyly. C57BL/6CrIBR mice were purchased from Charles River Laboratories (Wilmington, Mass.). Individual males were placed in female cages for the last 2-3 hours of the 12 hour dark cycle (10:00 pm to 10:00 am). The presence of a vaginal plug indicated a successful mating and 9:00 am was considered time zero of pregnancy. On day 7 of gestation, plugged females were lightly anesthetized with Isofluorane and checked for pregnancy by abdominal palpation. The pregnant females were administered CdSO4 (SIGMA, St. Louis, Mo.), 4 mg/kg in phosphate-buffered saline (PBS), intraperitoneally, at 9:00 pm on day 9. These pregnant females were then allowed free access to food and water until day 18 when they were sacrificed by Isofluorane overdose. The fetuses were removed from the uterus and prepared for skeletal analysis by double-staining of cartilage and bone (Kuczuk and Scott (1984) supra).
CdSo4, 4 mg/kg, was administered intraperitoneally on day 9 of gestation.

Gli3 [3] = test: Quantitative RT-PCR of forelimb buds, Gli3; format: in vivo, mouse; conditions: limb buds of day 10.5 embryos, normalized to tubulin
Description: (§1) Real Time Reverse Transcribed-Polymerase Chain Reaction (RT-PCR). Precise levels of message expression of Shh, Ptch1, and Gli3 were performed by RT-PCR. […] Right and left forelimb buds from a single litter (n=3) were pooled separately and equal amounts of total RNA were reverse-transcribed using […]™ II (INVITROGEN™, Carlsbad, Calif.) in the presence of oligo-dT or random primers. For quantitative PCR, aliquots of the reverse transcription reaction were amplified in the presence of SYBR® Green (Quantitect SYBR® green PCR kit; QIAGEN®, Valencia, Calif.) and gene specific primers for Shh, Ptch1, Gli3 and aTub. […] The PCR amplifications and monitoring of product generation per cycle were performed using a DNA Engine OPTICON® 2 Continuous Fluorescence Detector and evaluated using its software. Gene expression levels were determined by gene-specific standard curves in the linear amplification phase. All values were normalized to tubulin within the same sample.

Ptch1 [4] = test: Whole mount in situ hybridization, Ptch1; format: in vivo, mouse; conditions: right forelimb, 24 hours after treatment
Description: (§2) Whole Mount In Situ Hybridization. Assays were performed in accordance with standard methods (Wilkinson and Nieto (1993) Meth. Enzymol. 225:361-373). Embryos from control and cadmium-exposed pregnancies were processed together in the same vessel, examined and photographed using an OLYMPUS® SZX9 stereomicroscope. Digoxigenin-labeled riboprobes were transcribed from linearized DNA templates.
(§3) The expression pattern of four genes (i.e., Shh, Ptch1, Gli3, and Fgf8) in the right forelimb of control and cadmium-exposed embryos was examined by whole mount in situ hybridization 24 hours after treatment. The expression of Shh was restricted to the posterior mesenchymal cells of the developing murine limb bud.

[5] = test system: mouse embryo zone of polarizing activity (ZPA); test: Polarizing activity of mouse embryo ZPA grafted to chick wing bud; format: in vivo
Description: Polarizing Activity. Fertilized White Leghorn eggs (SPAFAS) were incubated at 38° C. On the second day, 1 to 2 mL of albumin were removed so that the eggs could be windowed the next day without damaging the embryo. After windowing, 3 drops of penicillin/streptomycin (50 units/mL) were added and the window closed with SCOTCH™ tape. On the fourth day of incubation a piece of day 10.5 mouse embryo right forelimb was excised from the posterior aspect (i.e., ZPA) of cadmium sulfate- or PBS-exposed embryos and grafted between the ectoderm and mesenchyme at the anterior margin of a stage 19/20 (Hamburger and Hamilton (1951) J. Morphol. 88:49-92) chick right wing bud. After grafting, 3 drops of penicillin/streptomycin were added, the window closed with tape and the egg replaced in the incubator for 7 additional days. At this time the chick embryo was sacrificed and the right wing bud processed for skeletal examination (Kuczuk and Scott (1984) supra). After staining, the digit pattern was determined and the index of polarizing activity was assessed according to standard methods (Honig, et al. (1981) J. Embryol. Exp. Morph. 62:203-216),

Fgf8 = test: Whole mount in situ hybridization, Fgf8; format: in vivo, mouse; conditions: day 10.5, 24 hours after administration
Description: as §2, §3

Gli3 [6] = test: Whole mount in situ hybridization, Gli3; format: in vivo, mouse; conditions: right forelimb, 24 hours after treatment
Description: as §2, §3

Shh [7] = test: Quantitative RT-PCR of forelimb buds, Shh; format: in vivo, mouse; conditions: limb buds of day 10.5 embryos, normalized to tubulin
Description: as §1

Ptch1 [8] = test: Quantitative RT-PCR of forelimb buds, Ptch1; format: in vivo, mouse; conditions: limb buds of day 10.5 embryos, normalized to tubulin
Description: as §1

Shh signaling = Shh signaling activity of forelimb bud lysate in Shh-Light 2 cells (Gli-luciferase reporter); format: cell-based, mouse; conditions: lysate of E10.5 right forelimb bud cells, 24 h after 4 mg/kg to dam
Description: Shh Signaling Activity. Pregnant C57BL/6 mice were treated with CdSo4, 4 mg/kg, or PBS, 10 mL/kg, at 9:00 pm on day 9 of gestation. Twenty-four hours post-treatment the dams were sacrificed. The implantation sites were removed and frozen in liquid nitrogen. Samples were stored at −80° C. until use in the Shh activity assay.
To create a sample of cell lysate, a litter of implantation sites was thawed and the embryos dissected free of their surrounding membranes. Somites were counted and the embryo limb staged according to standard practices (Wanek, et al. (1989) J. Exp. Zool. 249:41-49). […] Samples were sonicated and DNA measured using the HOEFER™ DYNA QUANT™ 200 Fluorimeter. After DNA quantification, fetal bovine serum was added so that the final concentration of serum was 0.5%.
Assay of SHH signaling activity was conducted in Shh-Light 2 cells, an NIH-3T3-derived stable cell line containing an integrated Gli-luciferase and constitutive Renilla luciferase reporters. […] Using the DUAL-LUCIFERASE® Reporter Assay System (PROMEGA®, Madison, Wis.), luciferase activity was measured and normalized to a Renilla control.
A more direct and specific assay of Shh signaling is provided in Shh-Light 2 cells. […] Culture of these cells with a medium or cellular homogenate containing Shh activates reporter expression and that activity can be quantitated luminometrically.

Shh [9] = test: Whole mount in situ hybridization, Shh; format: in vivo, mouse; conditions: right forelimb, 24 hours after treatment
Description: as §2, §3

[10] = 4 mg/kg i.p. day 9 of gestation, 8 dams, 68 implantation sites
[11] = 4 mg/kg i.p. day 9 of gestation, fetuses examined day 18

CC(=O)Nc1nnc(S(N)(=O)=O)s1 [Acetazolamide, reference compound]
Signaling by Shh protein measured by polarizing activity of ZPA (in words) [1]: almost totally abolished
Cell Growth (normalized) ([2]; inhibitor 10 μM): 1.0312
Cell Growth (normalized) ([2]; inhibitor 100 μM): 1.0370
Cell Growth (normalized) ([2]; inhibitor 1000 μM): 1.0130

Cadmium Sulfate
Fetuses with right forelimb affected by postaxial ectrodactyly (C57BL/6CrIBR mice; 4 mg/kg i.p. day 9): 78%
Number of fetuses with ectrodactyly, Bilateral R < L (C57BL/6CrIBR mice; 4 mg/kg i.p. day 9): 3
Number of fetuses with ectrodactyly, Bilateral R = L (C57BL/6CrIBR mice; 4 mg/kg i.p. day 9): 21
Number of fetuses with ectrodactyly, Bilateral R > L (C57BL/6CrIBR mice; 4 mg/kg i.p. day 9): 5
Number of fetuses with ectrodactyly, LFL Only (C57BL/6CrIBR mice; 4 mg/kg i.p. day 9, left forelimb only): 4
Number of fetuses with ectrodactyly, RFL Only (C57BL/6CrIBR mice; 4 mg/kg i.p. day 9, right forelimb only): 12*
No. Resorptions (C57BL/6CrIBR mice; [10]): 15
Resorptions (%) (C57BL/6CrIBR mice; [10]): 22%
Fetuses with Postaxial Forelimb Ectrodactyly (%) (C57BL/6CrIBR mice; [11]): 85%
No. Fetuses with Postaxial Forelimb Ectrodactyly (C57BL/6CrIBR mice; [11]): 45
Gli3 mRNA level (in words) (Gli3 [3]): A reduction of mRNA levels was not observed
Ptch1 expression pattern (in words) (Ptch1 [4]): unchanged
Inhibition of proliferation (in words) ([2]; comparison of inhibitors): more effectively than cyclopamine and acetazolamide
Cell Growth (normalized) ([2]; inhibitor 1 μM): 1.0341
Cell Growth (normalized) ([2]; inhibitor 10 μM): 0.9007
Cell Growth (normalized) ([2]; inhibitor 30 μM): 0.7200
Cell Growth (normalized) ([2]; inhibitor 100 μM): 0.0041
Cell Growth (normalized) ([2]; inhibitor 1000 μM): 0.0029
Capability of ZPA to induce limb reduplication (in words) ([5]; day 10.5 mouse embryo ZPA after exposure): severely inhibited
Induced Digit Pattern ([5]; individual grafts of day 10.5 ZPA from exposed embryos, x = unidentifiable partial duplicated digit, listed as CdSo4): 22234 and 234 (4×)
Fgf8 staining (in words) (Fgf8): slight truncation of Fgf8 staining posteriorly
Gli3 expression (in words) (Gli3 [6]): did not alter Gli3 expression
Shh mRNA level (in words) (Shh [7]): A reduction of mRNA levels was not observed
Ptch1 mRNA level (in words) (Ptch1 [8]): A reduction of mRNA levels was not observed
Shh signaling level compared to lysate from control embryo right forelimb buds (Shh signaling): 25%
Shh expression location or intensity (in words) (Shh [9]): No discernable difference

Reference: patent US20080008768A1, “Compositions and Methods for Inhibiting Sonic Hedgehog Activity” (priority 2004, published 2008)
